Experimental data reported in the supplement of paper PMC10326909.

Experiment: ESI positive response factor (isotope-corrected peak area per molar concentration) in SFC/ESI/HRMS (area units per M); higher = higher ionization efficiency
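Further: standards in acetonitrile/water run in triplicate on a zwitterionic HILIC column, CO2–methanol gradient containing 20 mmol/L ammonium acetate, postcolumn makeup flow, Orbitrap full-scan detection.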

Structure (SMILES) | ESI positive response factor (0.0175 µM) | ESI positive response factor (0.035 µM) | ESI positive response factor (0.0875 µM) | ESI positive response factor (0.175 µM) | ESI positive response factor (0.35 µM) | also measured
CCOc1nc2cccc(C(=O)O)c2n1Cc1ccc(-c2ccccc2-c2nnn[nH]2)cc1 [Candesartan] | 5.17e+16 | 8.14e+16 | 8.12e+16 | 8.2e+16 | 8.92e+16 | ESI positive response factor (0.875 µM): 9.01e+16; ESI positive response factor (1.75 µM): 8.46e+16
O=C(O)C(c1ccccc1)C1CCCCN1 (centres undefined) [Ritalinic acid] |  | 1.26e+17 | 1.24e+17 | 1.12e+17 | 1.31e+17 | ESI positive response factor (0.875 µM): 1.17e+17; ESI positive response factor (1.75 µM): 1.26e+17
COP(=O)(OC)SCn1c(=O)oc2cc(Cl)cnc21 [Azamethiphos] | 6.62e+17 | 7.29e+17 | 6.44e+17 | 6.11e+17 |  | 
CC(CCl)OP(=O)(OC(C)CCl)OC(C)CCl (centres undefined) [TCPP] | 1.59e+18 | 1.21e+18 | 1.02e+18 | 8.34e+17 | 7.91e+17 | 
COc1ccc2cc(C(C)C(=O)O)ccc2c1 (centres undefined) [Naproxen] |  | 7.47e+15 | 7.04e+15 | 6.98e+15 | 6.96e+15 | 
O=c1ccnc[nH]1 [4-Pyrimidinol] | 1.78e+16 | 2.97e+16 |  |  |  | 
Cc1ccc(NC(=O)N(C)C)cc1Cl [Chlortoluron] | 1.29e+17 | 1.32e+17 | 1.48e+17 | 1.28e+17 | 1.4e+17 | 
CCOC(=O)CN1CCCC1=O [Ethyl 2-oxo-1-pyrrolidineacetate] | 9.45e+16 | 9.95e+16 | 9.42e+16 |  |  | 
CCCCCC(C)N (centres undefined) [2-Aminoheptane] |  | 1.87e+16 | 1.47e+16 |  |  | 
Cn1cnc2c1c(=O)n(CCCC(=O)O)c(=O)n2C [1-(3-Carboxypropyl)-3,7-dimethyl-xanthin] | 1.77e+16 | 2.12e+16 | 2.2e+16 | 2e+16 | 2.34e+16 | ESI positive response factor (0.875 µM): 2.22e+16
O=C1NCCCN1 [N,N?-Trimethyleneurea] |  |  |  |  |  | ESI positive response factor (0.0122 µM): 2.53e+16; ESI positive response factor (0.0244 µM): 3.89e+16; ESI positive response factor (0.061 µM): 3.96e+16
CC(=O)OCC[N+](C)(C)C [Acetylcholine] | 2.2e+17 | 1.98e+17 | 2.4e+17 | 2.16e+17 | 2.13e+17 | 
CNCCC(Oc1ccc(C(F)(F)F)cc1)c1ccccc1 (centres undefined) [Fluoxetine] | 9.5e+16 | 1.16e+17 | 1.1e+17 | 1.05e+17 |  | 
CN(C)N/N=C1/N=CN=C1C(N)=O [Dacarbazine] |  |  | 2.45e+15 | 5.22e+15 |  | 
Cc1cccc(C)c1N(Cn1cccn1)C(=O)CCl [Metazachlor] |  |  |  |  |  | ESI positive response factor (0.0122 µM): 3.21e+17; ESI positive response factor (0.0244 µM): 3.32e+17; ESI positive response factor (0.061 µM): 3.05e+17; ESI positive response factor (0.122 µM): 2.62e+17; ESI positive response factor (0.244 µM): 2.65e+17
CC1=C(C(=O)Nc2ccccc2)SCCO1 [Carboxin] | 7.6e+16 | 1.1e+17 | 1.07e+17 | 9.93e+16 | 1.1e+17 | 
O=c1[nH]sc2ccccc12 [Benzisothiazolinone] |  | 1.45e+16 | 1.52e+16 | 1.36e+16 | 1.55e+16 | 
Cn1sccc1=O [Methylisothiazolinone] |  |  |  |  |  | ESI positive response factor (0.61 µM): 9.58e+14; ESI positive response factor (1.22 µM): 1.18e+15
COc1nc(C)nc(NC(=O)NS(=O)(=O)c2ccccc2Cl)n1 [Chlorsulfuron] |  | 4.22e+16 | 4.88e+16 | 5.05e+16 | 5.61e+16 | ESI positive response factor (0.875 µM): 5.75e+16; ESI positive response factor (1.75 µM): 5.77e+16
C#C[C@]1(O)CC[C@H]2[C@@H]3CCc4cc(O)ccc4[C@H]3CC[C@@]21C [17-Alpha-Ethinylestradiol] |  | 1.46e+16 | 1.85e+16 | 1.59e+16 | 1.71e+16 | 
NC(N)=Nc1nc(CSCCC(N)=NS(N)(=O)=O)cs1 [Famotidin] |  |  | 2.45e+16 | 3.25e+16 | 3.73e+16 | ESI positive response factor (0.875 µM): 3.76e+16; ESI positive response factor (1.75 µM): 3.72e+16
CN(C)CCC=C1c2ccccc2CCc2ccccc21 [Amitriptyline] |  | 4.1e+17 | 3.69e+17 | 4.36e+17 | 4.54e+17 | 
CC(C)(CO)[C@@H](O)C(=O)NCCCO [Panthenol] |  |  |  |  |  | ESI positive response factor (0.0122 µM): 5.93e+16; ESI positive response factor (0.0244 µM): 6.23e+16; ESI positive response factor (0.061 µM): 6.32e+16; ESI positive response factor (0.122 µM): 6.16e+16; ESI positive response factor (0.244 µM): 6.31e+16

Structure (SMILES) | ESI positive response factor (0.0175 µM) | ESI positive response factor (0.035 µM) | ESI positive response factor (0.0875 µM) | ESI positive response factor (0.175 µM) | ESI positive response factor (0.35 µM) | also measured
N=C(N=C(N)N)N1CCOCC1 [Moroxydine] |  |  |  |  |  | ESI positive response factor (0.0122 µM): 1.51e+17; ESI positive response factor (0.0244 µM): 1.7e+17; ESI positive response factor (0.061 µM): 1.94e+17; ESI positive response factor (0.122 µM): 1.92e+17; ESI positive response factor (0.244 µM): 1.97e+17
CC(C)NCC(O)c1ccc(NS(C)(=O)=O)cc1 (centres undefined) [Sotalol] | 2.28e+17 | 2.68e+17 | 2.59e+17 |  |  | 
O=C(O)[C@@H]1C[C@@H](O)CN1 [L-Hydroxyprolin] |  |  |  |  |  | ESI positive response factor (0.122 µM): 2.76e+15; ESI positive response factor (0.244 µM): 3.07e+15; ESI positive response factor (0.61 µM): 2.85e+15
CCCCC(CC)CNCC(CC)CCCC (centres undefined) [Bis(2-ethylhexyl)amine] | 8.07e+17 | 8.73e+17 | 9.48e+17 | 9.83e+17 |  | 
Cn1c(N)c(NC=O)c(=O)n(C)c1=O [6-Amino-1,3dimethyl-5-(formylamino)uracil] |  |  | 8.08e+14 |  | 2.17e+15 | ESI positive response factor (0.875 µM): 2.09e+15; ESI positive response factor (1.75 µM): 2.18e+15
CON(C)C(=O)Nc1ccc(Br)cc1 [Metobromuron] |  |  |  |  |  | ESI positive response factor (0.0122 µM): 2.18e+17; ESI positive response factor (0.0244 µM): 2.29e+17; ESI positive response factor (0.061 µM): 2.07e+17; ESI positive response factor (0.122 µM): 1.95e+17
N=c1nc(N2CCCCC2)cc(N)n1O [Minoxidil] |  |  |  |  |  | ESI positive response factor (0.0122 µM): 1.59e+17; ESI positive response factor (0.0244 µM): 1.78e+17; ESI positive response factor (0.061 µM): 1.77e+17; ESI positive response factor (0.122 µM): 1.69e+17; ESI positive response factor (0.244 µM): 1.72e+17
COCC(=O)Nc1c(I)c(C(=O)NCC(O)CO)c(I)c(C(=O)N(C)CC(O)CO)c1I (centres undefined) [Iopromide] |  |  |  |  |  | ESI positive response factor (0.61 µM): 1.19e+15; ESI positive response factor (1.22 µM): 1.27e+15
CN(C)C(=O)C(c1ccccc1)c1ccccc1 [Diphenamid] | 1.12e+17 | 1.02e+17 | 1.09e+17 | 9.79e+16 | 1.13e+17 | 
C=CC(=O)OCC[N+](C)(C)C [[2-(Acryloyloxy)ethyl]trimethylammonium] |  | 8.46e+16 | 6.97e+16 | 5.79e+16 | 6.32e+16 | ESI positive response factor (0.875 µM): 6.01e+16
c1ccc(CC2=NCCN2)cc1 [2-Benzylimidazoline] |  |  |  | 4.79e+15 | 5.75e+15 | ESI positive response factor (0.875 µM): 5.13e+15; ESI positive response factor (1.75 µM): 4.96e+15
COc1ccc(O)c(C(C)(C)C)c1 [Butylated hydroxyanisole] |  |  | 3.78e+15 | 2.82e+15 | 3.32e+15 | ESI positive response factor (0.875 µM): 3.01e+15
C[NH2+]C[C@H](O)CO [3-Methylamino-1,2-propanediol] |  |  |  |  |  | ESI positive response factor (0.0122 µM): 7.17e+16; ESI positive response factor (0.0244 µM): 4.4e+16; ESI positive response factor (0.061 µM): 6.78e+16; ESI positive response factor (0.122 µM): 6.39e+16; ESI positive response factor (0.244 µM): 7.28e+16; ESI positive response factor (0.61 µM): 6.66e+16
CC1(C)CC(O)CC(C)(C)N1 [2,2,6,6-Tetramethyl-4-piperidinol] | 1.95e+17 | 1.78e+17 | 1.53e+17 | 1.47e+17 | 1.58e+17 | 
CN(C)CCOC(c1ccccc1)c1ccccc1 [Diphenhydramine] | 1.59e+17 | 2.23e+17 | 2.16e+17 | 2.35e+17 | 2.4e+17 | ESI positive response factor (0.875 µM): 2.25e+17
CC(=O)Nc1ccc(O)cc1 [Acetaminophen] | 3.61e+16 | 4.56e+16 | 4.18e+16 | 3.74e+16 | 4.29e+16 | 
C[N+](C)(C)CC(=O)O [Betaine] | 1.5e+17 | 1.36e+17 | 1.14e+17 |  |  | 
C[C@]12CC[C@H]3[C@@H](CCC4=CC(=O)CC[C@@]43C)[C@@H]1CC[C@@H]2O [Testosteron] | 2.27e+17 | 2.44e+17 | 2.22e+17 |  |  | 
OCC[C@@H]1CCCC[NH2+]1 [2-Piperidineethanol] |  |  |  |  |  | ESI positive response factor (0.0122 µM): 1.24e+17; ESI positive response factor (0.0244 µM): 1.22e+17; ESI positive response factor (0.061 µM): 9.77e+16; ESI positive response factor (0.122 µM): 1.07e+17; ESI positive response factor (0.244 µM): 1.07e+17
CCCCC(=O)N(Cc1ccc(-c2ccccc2-c2nn[nH]n2)cc1)C(C(=O)O)C(C)C (centres undefined) [Valsartan] | 2.86e+16 | 5.36e+16 | 5.55e+16 | 5.75e+16 | 6.09e+16 | ESI positive response factor (0.875 µM): 6.04e+16; ESI positive response factor (1.75 µM): 5.94e+16
Nc1nc(N)nc(N)n1 [Melamine] |  |  |  |  |  | ESI positive response factor (0.0244 µM): 1.84e+16; ESI positive response factor (0.061 µM): 2.07e+16; ESI positive response factor (0.122 µM): 1.7e+16; ESI positive response factor (0.244 µM): 1.82e+16
CCOC(=O)[C@H](CCc1ccccc1)N[C@@H](C)C(=O)N1CCC[C@H]1C(=O)O [Enalapril] | 2.87e+17 | 3.29e+17 | 3.2e+17 | 3.2e+17 |  | 
